# Data from patent publication US20070197625A1, “Azabicyclic compounds, a process for their preparation and pharmaceutical compositions containing them” (Les Laboratoraties Servier, priority 2004, published 2007).
# Target: T1, type H3 central histaminergic receptors (Mus musculus, UniProt P58406)
# T1 construct: from tissue; host or cells: brain of living NMRI mice
# Test: Cerebral doses of N^t-methylhistamine in the NMRI mouse (ex vivo, after oral administration)
# Conditions: NMRI mice, brain two hours after treatment, vs carrier control
# Method: The aim of this study, carried out according to the method of Taylor et al. (Biochem. Pharm., 1992, 44, 1261-1267), is to evaluate the ex vivo activity of the compounds of the present invention as type H3 central histaminergic receptor antagonists. […] An increase in the cerebral concentrations of N^t-methylhistamine signifies an increase in histamine turnover by blockade of the type H3 central histaminergic receptors.
# NMRI mice (18-20 g) are treated via oral administration with the compounds of the present invention or with their carrier (20 ml/kg). Two hours after the pharmacological treatment, the animals are sacrificed, the brains are removed, frozen in liquid nitrogen, weighed and homogenised in 0.1N HClO4 at 4° C. The homogenates are centrifuged (15000 g, 17 min, 4° C.). The supernatants are recovered and divided into aliquots. The aliquots are frozen in liquid nitrogen and stored at −80° C. until their analysis.
# Determination of the cerebral levels of N^t-methylhistamine is effected by capillary electrophoresis coupled with detection by laser-induced fluorescence (J. Chromatogr. A., 1996, 755, 99-115). The tissue levels of N^t-methylhistamine are expressed in ng/g of fresh brain. Comparison between the cerebral levels of N^t-methylhistamine of the animals treated with the carrier (control) and the animals treated with the compounds of the present invention (n=5/group) is effected by single factor variance analysis followed, if necessary, by a supplementary analysis (Dunnett's test).
# T1 sequence (P58406 whole entry): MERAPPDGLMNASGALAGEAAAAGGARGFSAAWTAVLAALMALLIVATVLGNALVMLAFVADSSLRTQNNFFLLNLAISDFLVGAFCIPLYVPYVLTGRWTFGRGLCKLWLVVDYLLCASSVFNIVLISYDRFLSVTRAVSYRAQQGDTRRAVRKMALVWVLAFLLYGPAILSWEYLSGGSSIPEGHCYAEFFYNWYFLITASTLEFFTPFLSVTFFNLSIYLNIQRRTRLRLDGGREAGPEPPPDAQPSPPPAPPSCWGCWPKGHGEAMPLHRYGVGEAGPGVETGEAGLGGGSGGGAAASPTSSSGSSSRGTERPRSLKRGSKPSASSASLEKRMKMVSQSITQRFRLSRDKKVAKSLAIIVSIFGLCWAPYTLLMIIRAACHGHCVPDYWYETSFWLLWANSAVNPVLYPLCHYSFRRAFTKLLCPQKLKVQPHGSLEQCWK
SMILES,increase of the endogenous cerebral concentrations of N^t-methylhistamine (10 mg/kg p.o.),increase of the endogenous cerebral concentrations of N^t-methylhistamine (3 mg/kg p.o.)
"N#Cc1ccc(OCCCN2CC3CCCC3C2)cc1.O=C(O)C(=O)O (centres unmarked) [Example 1, 4-(3-Hexahydrocyclopenta[c]pyrrol-2(1H)-ylpropoxy)benzonitrile oxalate]",92%,–
"CC(=O)Nc1ccc(OCCCN2CC3CCCC3C2)cc1.O=C(O)C(=O)O (centres unmarked) [Example 4, N-[4-(3-Hexahydrocyclopenta[c]pyrrol-2(1H)-ylpropoxy)-phenyl]acetamide oxalate]",–,52%
"NC(=O)c1ccc(OCCCN2CC3CCCC3C2)cc1.O=C(O)C(=O)O (centres unmarked) [Example 22, 4-(3-Hexahydrocyclopenta[c]pyrrol-2(1H)-ylpropoxy)benzamide oxalate]",85%,33%
"CNC(=O)c1ccc(OCCCN2CC3CCCC3C2)cc1 (centres unmarked) [Example 93, 4-[3-(Hexahydrocyclopenta[c]pyrrol-2(1H)-yl)propoxy]-N-methylbenzamide]",–,90%
